Results reported in patent US9834549B2, “3,3-disubstituted-(8-aza-bicyclo[3.2.1]OCT-8-yl)-[5-(1H-pyrazol-4-yl)-thiophen-3-yl]-methanones as inhibitors of 11 (β)-HSD1” (The University Of Edinburgh, priority 2010, dated 2017).

Target: T1, human 11β-HSD1 (Homo sapiens, UniProt P28845)
T1 construct: stably transfected with a construct containing the full-length gene coding for the human 11β-HSD1 enzyme; expressed in transfected cells; host or cells: HEK293 (stably transfected, HEK293/11β-HSD1)
Assay: Cellular in vitro 11β-HSD1 enzyme inhibition assay (SPA, HEK293/11β-HSD1 cells)
Type: cell-based
Conditions: HEK293; potency groups, μM; read-out: IC50 for 11β-HSD1 (HEK293)
Description: Compounds were assessed by a Scintillation Proximity Assay (SPA) performed according to the following protocol:
HEK293 cells were stably transfected with a construct containing the full-length gene coding for the human 11β-HSD1 enzyme to create HEK293/11β-HSD1 cells. Cells were routinely cultured in DMEM containing 10% calf foetal serum, 1% glutamine, and 1% penicillin and streptomycin. Prior to assay, cells were plated at 2×10^4 cells/well in 96-well poly-D-Lys coated flat-bottomed microplates and incubated in 5% CO2, 95% O2 at 37° C. for 24 hours. The media in each well was removed immediately before assay.
Compounds to be tested were dissolved in DMSO at 10 mM and serially diluted into water containing 10% DMSO. Diluted compounds at a volume of 10 μL were added to wells of a 96-well V-bottomed microplate. A solution of DMEM, 1% glutamine, 1% penicillin and streptomycin, and 22 nM tritiated cortisone was prepared and 90 μL added to each well of the assay plate. This solution (100 μL/well) was transferred to the plate containing the cells. The plate was then incubated in 5% CO2, 95% O2 at 37° C. for 2 hours.
Following this incubation, 50 μL of the assay solution was transferred to each well of a 96-well scintillation microplate. A mixture consisting of anti-mouse YSi SPA beads, pre-mixed with anti-cortisol antibody in assay buffer (50 mM Tris.HCl, pH 7.0; 300 mM NaCl; 1 mM EDTA, 5% glycerol) was prepared and 50 μL added to each well of the scintillation microplate. An adhesive strip was applied to the microplate and the plate gently shaken for at least 2 hours at room temperature, and then spun briefly on a low speed centrifuge. The plate was read on a scintillation counter suitable for 96-well microplates. For the calculation of percentage inhibition, a series of wells were added to the plate that represented the assay maximum and the assay minimum: one set that contained substrate without cells (minimum) and another set that contained substrate and cells without any compound (maximum).
The calculation of median inhibitory concentration (IC50) values for the compounds was performed using GraphPad Prism® software. Dose-response curves for each compound were plotted as fractional inhibition and data fitted to the four parameter logistic equation.

T1 sequence (P28845 whole entry): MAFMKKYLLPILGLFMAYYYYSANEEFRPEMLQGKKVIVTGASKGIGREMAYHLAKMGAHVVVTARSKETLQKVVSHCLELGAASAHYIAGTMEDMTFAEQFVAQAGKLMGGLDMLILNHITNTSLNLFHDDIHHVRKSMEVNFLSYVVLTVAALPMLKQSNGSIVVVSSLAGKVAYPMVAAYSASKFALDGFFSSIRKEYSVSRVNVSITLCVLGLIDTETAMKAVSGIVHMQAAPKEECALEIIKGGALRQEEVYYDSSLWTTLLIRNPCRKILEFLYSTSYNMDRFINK

Row | Compound | IC50
1 | Cn1ccnc1C1(O)CC2CCC(C1)N2C(=O)c1csc(-c2cn[nH]c2)c1 (centres unmarked) [XX-38] | 0.5 to 10 µM
2 | O=C(c1csc(-c2cn[nH]c2)c1)N1C2CCC1CC(O)(c1cccnn1)C2 (centres unmarked) [XX-28] | 0.5 to 10 µM
3 | O=C(c1csc(-c2cn[nH]c2)c1)N1C2CCC1CC(O)(c1ncccc1F)C2 (centres unmarked) [XX-02] | 0.5 to 10 µM
4 | O=C(c1csc(-c2cn[nH]c2)c1)N1C2CCC1CC(O)(c1cncnc1)C2 (centres unmarked) [XX-22] | 0.5 to 10 µM
5 | O=C(c1csc(-c2cn[nH]c2)c1)N1CCC(O)(c2ncccn2)CC1 [YY-10] | 0.5 to 10 µM
6 | O=C(c1csc(-c2cn[nH]c2)c1)N1CCC(O)(c2ccccn2)CC1 [YY-01] | 0.5 to 10 µM
7 | O=C(c1csc(-c2cn[nH]c2)c1)N1CCC(O)(c2ncccc2F)CC1 [YY-08] | 0.5 to 10 µM
8 | O=C(c1csc(-c2cn[nH]c2)c1)N1C2CCC1CC(O)(c1ccncn1)C2 (centres unmarked) [XX-21] | 0.5 to 10 µM
9 | O=C(c1csc(-c2cn[nH]c2)c1)N1CCC(F)(c2ncccn2)CC1 [YY-11] | 0.5 to 10 µM

Same assay, conditions: HEK293; potency groups; read-out: IC50 for 11β-HSD1 (HEK293)

Row | Compound | IC50
10 | CN(C)c1cccc(C2(O)CC3CCC(C2)N3C(=O)c2csc(-c3cn[nH]c3)c2)n1 (centres unmarked) [XX-08] | ≤ 0.1 µM
11 | O=C(c1csc(-c2cn[nH]c2)c1)N1CCC(F)(c2ncccc2Cl)CC1 [YY-09] | 0.1 to 0.5 µM
12 | O=C(c1csc(-c2cn[nH]c2)c1)N1CCC(O)(c2ncccc2C(F)(F)F)CC1 [YY-04] | 0.1 to 0.5 µM
13 | N#CC1(c2nccs2)CC2CCC(C1)N2C(=O)c1csc(-c2cn[nH]c2)c1 (centres unmarked) [XX-35] | ≤ 0.1 µM
14 | CCc1ccc(Cl)c(C2(O)CCN(C(=O)c3csc(-c4cn[nH]c4)c3)CC2)n1 [YY-05] | 0.1 to 0.5 µM
15 | O=C(c1csc(-c2cn[nH]c2)c1)N1C2CCC1CC(O)(c1nc3ccccc3s1)C2 (centres unmarked) [XX-40] | 0.1 to 0.5 µM
16 | O=C(c1csc(-c2cn[nH]c2)c1)N1C2CCC1CC(F)(c1nccs1)C2 (single isomer, unassigned) [XX-34, (3-Fluoro-3-thiazol-2-yl-8-aza-bicyclo[3.2.1]oct-8-yl)-[5-(1H-pyrazol-4-yl)-thiophen-3-yl]-methanone] | 0.1 to 0.5 µM
17 | O=C(c1csc(-c2cn[nH]c2)c1)N1CCC(O)(c2ccncc2F)CC1 [YY-07] | 0.1 to 0.5 µM
18 | Cn1nccc1C1(O)CC2CCC(C1)N2C(=O)c1csc(-c2cn[nH]c2)c1 (centres unmarked) [XX-39] | 0.1 to 0.5 µM
19 | O=C(c1csc(-c2cn[nH]c2)c1)N1C2CCC1CC(O)(c1ncccc1Cl)C2 (centres unmarked) [XX-03] | ≤ 0.1 µM
20 | COc1cccc(C2(O)CC3CCC(C2)N3C(=O)c2csc(-c3cn[nH]c3)c2)n1 (centres unmarked) [XX-05] | ≤ 0.1 µM
21 | Cc1cnc(C2(O)CC3CCC(C2)N3C(=O)c2csc(-c3cn[nH]c3)c2)s1 (centres unmarked) [XX-32] | ≤ 0.1 µM
22 | O=C(c1csc(-c2cn[nH]c2)c1)N1C2CCC1CC(O)(c1ncncc1Cl)C2 (centres unmarked) [XX-23] | ≤ 0.1 µM
23 | Cc1nccnc1C1(O)CC2CCC(C1)N2C(=O)c1csc(-c2cn[nH]c2)c1 (centres unmarked) [XX-25] | 0.1 to 0.5 µM
24 | Cc1csc(C2(O)CC3CCC(C2)N3C(=O)c2csc(-c3cn[nH]c3)c2)n1 (centres unmarked) [XX-30] | 0.1 to 0.5 µM
25 | CCOC1(c2ccccn2)CC2CCC(C1)N2C(=O)c1csc(-c2cn[nH]c2)c1 (centres unmarked) [XX-12] | ≤ 0.1 µM
26 | COc1cccnc1C1(O)CC2CCC(C1)N2C(=O)c1csc(-c2cn[nH]c2)c1 (centres unmarked) [XX-06] | ≤ 0.1 µM
27 | O=C(c1csc(-c2cn[nH]c2)c1)N1C2CCC1CC(F)(c1ncccc1F)C2 (centres unmarked) [XX-41] | ≤ 0.1 µM
28 | O=C(c1csc(-c2cn[nH]c2)c1)N1C2CCC1CC(O)(c1ccncc1Cl)C2 (centres unmarked) [XX-04] | ≤ 0.1 µM
29 | Cc1cccnc1C1(C#N)CC2CCC(C1)N2C(=O)c1csc(-c2cn[nH]c2)c1 (centres unmarked) [XX-19] | ≤ 0.1 µM
30 | COC1(c2ccccn2)CC2CCC(C1)N2C(=O)c1csc(-c2cn[nH]c2)c1 (centres unmarked) [XX-10] | ≤ 0.1 µM
31 | O=C(c1csc(-c2cn[nH]c2)c1)N1C2CCC1CC(F)(c1ccccn1)C2 (centres unmarked) [XX-14] | ≤ 0.1 µM
32 | N#CC1(c2ncccn2)CC2CCC(C1)N2C(=O)c1csc(-c2cn[nH]c2)c1 (centres unmarked) [XX-26] | ≤ 0.1 µM
33 | COC1(c2ncccc2C)CC2CCC(C1)N2C(=O)c1csc(-c2cn[nH]c2)c1 (centres unmarked) [XX-11] | ≤ 0.1 µM
34 | O=C(c1csc(-c2cn[nH]c2)c1)N1C2CCC1CC(O)(c1cccnn1)C2 (centres unmarked) [XX-27] | ≤ 0.1 µM
35 | O=C(c1csc(-c2cn[nH]c2)c1)N1C2CCC1CC(O)(c1ncco1)C2 (centres unmarked) [XX-37] | ≤ 0.1 µM
36 | O=C(c1csc(-c2cn[nH]c2)c1)N1CCC(O)(c2ncc(Cl)cc2Cl)CC1 [YY-03] | 0.1 to 0.5 µM
37 | O=C(c1csc(-c2cn[nH]c2)c1)N1C2CCC1CC(O)(c1ncccc1C(F)(F)F)C2 (centres unmarked) [XX-09] | ≤ 0.1 µM

Same assay, conditions: HEK293 cells transfected with human 11β-HSD1; first value in cell; read-out: IC50 for 11β-HSD1 (HEK293)

Row | Compound | IC50
38 | O=C(c1csc(-c2cn[nH]c2)c1)N1C2CCC1CC(O)(c1ncccc1Cl)C2 (centres unmarked) [XX-03] | 0.012 µM

Target: T2, human 11β-HSD2 (Homo sapiens, UniProt P80365)
T2 construct: CHO cells stably transfected with the full-length gene coding for human 11β-HSD2 were used; expressed in transfected cells; host or cells: CHO (stably transfected)
T2 sequence (P80365 1-405): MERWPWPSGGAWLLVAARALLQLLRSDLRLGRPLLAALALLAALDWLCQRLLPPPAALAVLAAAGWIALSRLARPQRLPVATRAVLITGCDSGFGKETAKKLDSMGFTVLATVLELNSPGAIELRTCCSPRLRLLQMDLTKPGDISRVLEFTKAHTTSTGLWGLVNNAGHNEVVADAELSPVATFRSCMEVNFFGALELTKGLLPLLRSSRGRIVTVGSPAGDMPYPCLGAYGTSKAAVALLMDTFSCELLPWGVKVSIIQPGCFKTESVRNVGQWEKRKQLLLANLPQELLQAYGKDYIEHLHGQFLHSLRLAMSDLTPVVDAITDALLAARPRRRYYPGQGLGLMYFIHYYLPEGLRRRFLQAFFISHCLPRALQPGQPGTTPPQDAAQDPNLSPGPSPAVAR
Assay: Cellular in vitro 11β-HSD2 enzyme inhibition assay (CHO cells)
Type: cell-based
Conditions: CHO cells transfected with human 11β-HSD2
Description: For measurement of inhibition of 11β-HSD2, CHO cells stably transfected with the full-length gene coding for human 11β-HSD2 were used. Assays were carried out in 96-well microplates containing 1×10^5 cells/well. Controls and compounds were plated as above, so that the final DMSO concentration in each well was 1%. To initiate the assay, 90 μL of a solution of HAMS F-12 medium containing 1% glutamine, 1% penicillin and streptomycin, and 22 nM tritiated cortisol was added to each well of the assay plate. The plate was then incubated in 5% CO2, 95% O2 at 37° C. for 16 hours.
The assay solutions were transferred to glass tubes and […] added to each tube. Each tube was vortexed thoroughly and the upper layer containing the tritiated steroid transferred to a fresh glass tube. The solvent was evaporated by placing the tubes in a heating block at 65° C. under a stream of nitrogen gas. 20 μL ethanol was added to each of the dried samples and vortexed briefly. Each sample was applied to a silica TLC plate and the plate dried. The plate was placed vertically in a glass tank containing 92% chloroform: 8% ethanol and the solvent allowed to rise up the plate. The plate was dried, placed in an imaging cassette, and overlayed with a tritium imaging plate for 1-2 days. The amount of enzyme inhibition in each sample was determined by measuring the intensity of the substrate and product spots using a phospho-imager. IC50 values for inhibitors were determined as described above for 11β-HSD1.

Row | Compound | IC50
39 | O=C(c1csc(-c2cn[nH]c2)c1)N1C2CCC1CC(O)(c1ncccc1Cl)C2 (centres unmarked) [XX-03] | > 10000 nM

Tested on: not listed separately
Assay: In vitro human liver microsomal stability assay
Type: in vitro ADME
Conditions: human liver microsomes
Description: To predict in vivo metabolism of compounds, the stability of compounds incubated with human liver microsomes in vitro was determined. Human liver microsome preparations were stored at −80° C. and thawed on ice prior to use. The thawed microsomes were diluted to a concentration of 2 mg/mL in 50 mM sodium phosphate, pH 7.4. Reference and test compounds were prepared as 10 mM stocks in 100% DMSO and diluted to 1 mM in acetonitrile before use. Each compound was tested in triplicate as follows:
4 μL of test or reference compound was added to a well of a 24-well microplate and 0.5 mL of 4 mM NADPH added. The plate was then transferred to a shaker for 10 minutes at room temperature. 30 μL of the compound/NADPH solution was transferred to the well of a 96-well microplate and incubated at 37° C. for 5 minutes. 30 μL of human liver microsomes (pre-incubated at 37° C. for 5 minutes) was added to the well containing the compound/NADPH solution and the plate incubated for the selected period of time (typically 0 or 30 minutes). The reaction was stopped by adding 60 μL of ice cold […] trichloroacetic acid. The plate was centrifuged at 1000 rpm for 5 minutes at room temperature and the supernatant transferred to the well of a new 96-well V-bottomed microplate for mass spectrometric analysis.
Samples were analyzed by TSQ Quantum Discovery Tandem Mass Spectrometer and Surveyor Liquid Chromatogram (Thermo, Hemel-Hempstead, UK). 10 μL of each sample was injected in a mobile phase consisting of 60%:40% methanol:5 mM ammonium acetate at a flow rate of 0.5 mL/minute. The column used was a BDS hypersil, C18, 50×2.1 mm with a 5 μm particle size.
Each compound was tuned with a spray voltage of 3000 V and a capillary temperature of 300° C. and values for tube lens, CID and product ions were determined.
The peak area for each compound was measured in triplicate for the 0 and 30 minute samples and the average of each was reported. The percentage remaining after 30 minutes was calculated as the average peak area of the sample after 30 minutes divided by the average peak area at 0 minutes. The RSD was 10% or lower for each compound.

Row | Compound | % Parent Remaining at 30 min
40 | O=C(c1csc(-c2cn[nH]c2)c1)N1CCC(F)(c2ncccc2Cl)CC1 [YY-09] | +++ (61-100% +++)
41 | N#CC1(c2nccs2)CC2CCC(C1)N2C(=O)c1csc(-c2cn[nH]c2)c1 (centres unmarked) [XX-35] | ++ (31-60% ++)
42 | O=C(c1csc(-c2cn[nH]c2)c1)N1CCC(O)(c2ccncc2F)CC1 [YY-07] | +++ (61-100% +++)
43 | O=C(c1csc(-c2cn[nH]c2)c1)N1C2CCC1CC(O)(c1cccnn1)C2 (centres unmarked) [XX-27] | +++ (61-100% +++)
44 | O=C(c1csc(-c2cn[nH]c2)c1)N1C2CCC1CC(O)(c1ncco1)C2 (centres unmarked) [XX-37] | +++ (61-100% +++)
